Results from publication PMC11726677, “Eradication of Therapy-Resistant Cancer Stem Cells by Novel Telmisartan Derivatives” (Journal of Medicinal Chemistry, 2024).

Columns and labels:
Caco2 cells = experiment: Caco2 permeability (bidirectional); type: in vitro ADME; conditions: pH 7.4, 10 μM; for Caco2 permeability Papp B–A: basolateral to apical
Procedure: The medium was changed regularly and on day 20 the permeability study was performed. The monolayers were prepared by rinsing the apical and basolateral surfaces with Hanks Balanced Salt Solution (HBSS) twice at the desired pH and by incubating for 40 min to stabilize the physiological parameters. […] The compounds were diluted with buffer to a concentration of 10 μM (final DMSO concentration ≤1%) and added to the apical or basolateral sides of the cell monolayer. Compound permeability was assessed in duplicates and molecules of known permeability characteristics were used as controls (antipyrine, atenolol, talinolol, and estrone 3-sulfate). To calculate Papp, compound appearance was measured using LC–MS/MS. The efflux ratio was determined for bidirectional assays.

K562-R cells [1] = experiment: Cellular imatinib accumulation assay (U(H)PLC-SIM-MS); type: cell-based, human; conditions: preincubated 1 h with 10 μM compound, then 1 μM imatinib 2 h
Procedure: After treatment, cells were washed, and the resulting cell pellets were lysed in 200 μL of ice-cold methanol. Lysates were incubated on a tube shaker (Thermomixer C, Eppendorf) for 20 min at 4 °C and 1400 rpm, followed by centrifugation (MicroStar 17R, VWR) at 16000g for 5 min at 4 °C. 180 μL of supernatants were separated from the sediment and dried in a rotary vacuum evaporator (Concentrator plus, Eppendorf) and stored at −80 °C until analysis.
Metabolites were separated using the following gradient: 1% B for 0.2 min, 1% B to 70% B within 0.6 min, 70% B to 90% B within 0.2 min, 90% B for 0.3 min. The UPLC system was coupled to a quadrupole orbitrap mass spectrometer (Exploris 480, Thermo Fischer Scientific) via a HESI electrospray source. […] The spray voltage was set to 3500 V and the ion transfer tube and vaporizer temperatures were set at 350 °C. Sheath gas was used at a flow rate of 60 (arbitrary units (a.u)) and auxiliary gas at a flow rate of 15 (a.u)).
Raw data processing was performed using TraceFinder General Quan 5.0 (Thermo Scientific, San Jose, CA, USA). The ICIS algorithm was used for peak identification and integration with the following parameters Peak detection strategy: Highest peak; Peak threshold type: Area; Threshold: 1; Smoothing: 3; S/N threshold: 3; Tailing Factor: 8. Peaks were manually adjusted when necessary. […]

DU145-DR cells = experiment: Chemosensitizing to docetaxel: metabolic activity of DU145-DR cells (MTT); type: cell-based, human; conditions: compound 10 μM + DTX 12.5 nM, 72 h
Procedure: (§1) The chemosensitizing efficacy was investigated in the ovarian and prostate cancer cell lines using the above-described metabolic activity assay. Paclitaxel (PTX) served as a reference (CTR) in A2780 V SP and IGROV-1 SP cells and docetaxel (DTX) in PC3-DR and D145-DR cells.
(§2) COS-7 (2 × 10^3 cells per well), IGROV-1 SP (2.5 × 10^3 cells per well), A2780 V SP (1.5 × 10^3 cells per well), PC3-DR (4 × 10^3 cells per well), and DU145-DR (3 × 10^3 cells per well) cells were seeded in 96-well plates in triplicates and after 24 h, the compounds were added at the respective concentrations. K562-R and K562 cells (2 × 10^4 cells per well), were treated with the compounds 2 h after seeding. […] A modified MTT colorimetric assay (EZ4U kit, Biomedica) was used to determine the metabolic activity of the tested cells, according to the manufacturer’s instructions. Absorbance was measured and the optical density of the respective FCS-containing medium and of the substrate was subtracted to exclude nonspecific staining. Metabolic activity in the absence of the compounds (CTR, DMSO) was set to 100% as reference.

[2] = Hepatocyte stability, mouse; type: in vitro ADME; conditions: for half-life at 1 h, 1 µM / hepatocyte CLint at 1 h, 1 µM: mouse, cryopreserved mouse hepatocytes; for half-life at 1 h, 1 µM: read-out: hepatocytic stability mouse t1/2; for hepatocyte CLint at 1 h, 1 µM: after 60 min in MH, read-out: hepatocytic stability mouse, CLint
Procedure: (§3) Cryopreserved hepatocytes (human and mouse) were used to analyze the stability of the compounds. Hepatocytes (0.5 × 10^6 cells/mL in Williams E medium supplemented with 2 mM L-glutamine and 25 mM N-2-hydroxyethylpiperazin-Ń-ethanesulfonic acid (HEPES)) were preincubated at 37 °C. […] At the appropriate time points, the reactions were stopped by transferring into acetonitrile. After protein precipitation by centrifugation at 3000 rpm for 20 min at 4 °C, the sample supernatants were analyzed by LC–MS/MS analysis (control compounds were included). The elimination rate constant was determined from the ratio of the ln peak area to time. Half-life (t1/2) and intrinsic clearance (CLint) were calculated using the appropriate formulas.

[3] = Hepatocyte stability, human; type: in vitro ADME; conditions: for half-life at 1 h, 1 µM / hepatocyte CLint at 1 h, 1 µM: human, cryopreserved human hepatocytes; for half-life at 1 h, 1 µM: read-out: hepatocytic stability human t1/2; for hepatocyte CLint at 1 h, 1 µM: after 60 min in HH, read-out: hepatocytic stability human, CLint
Procedure: as §3

A549 cells (ABCC1+) = experiment: SP analysis (DCV, flow cytometry) in A549 cells; type: cell-based, human; conditions: A549, 10 μM
Source text: (§4) In recent studies, we described the side population (SP) phenotype as a marker that defines a heterogeneous cellular compartment with stem cell-characteristics in various cancer cell lines derived from solid tumors, such as ovarian cancer, breast cancer, and lung cancer.[26],[27]

[4] = system: primary human CML patient samples; experiment: Colony forming cell (CFC) assay, primary CML patient samples; type: cell-based; conditions: together with 1 μM of imatinib, once at the beginning of the 14 day assay; compound 10 μM
Source text: Frozen peripheral blood mononuclear cells (PBMC) from TKI naïve CML patients and healthy controls were used for the CFC assay as described previously.[46] Briefly, thawed cells were resuspended a semisolid medium (Enriched MethocCult H4435, Stem Cell Technologies) supplemented with the respective compounds and cultured in small culture dishes for 2 weeks. Colonies were counted using an inverted microscope.

K562-R cells [5] = experiment: Metabolic activity of K562-R cells, compounds alone (modified MTT assay); type: cell-based, human; conditions: 10 μM, 72 h, without imatinib; vehicle control = 100%
Procedure: (§5) The potential reduction in cell viability was determined using the modified MTT assay.
First, the compounds (10 μM) were applied alone to evaluate their effects per se.
as §2

PC3-DR cells = experiment: Chemosensitizing to docetaxel: metabolic activity of PC3-DR cells (MTT); type: cell-based, human; conditions: compound 10 μM + DTX 12.5 nM, 72 h
Procedure: as §1, §2

MCF7 cells (ABCG2+) = experiment: SP analysis (DCV, flow cytometry) in MCF7 cells; type: cell-based, human; conditions: MCF7, 10 μM
Source text: as §4

DU145-DR cells (ABCB1+) = experiment: SP analysis (DCV, flow cytometry) in DU145-DR cells; type: cell-based, human; conditions: 10 μM
Source text: as §4

K562-R cells [6] = experiment: Chemosensitizing: metabolic activity of K562-R cells cotreated with imatinib (modified MTT assay); type: cell-based, human; conditions: for chemosensitizing effect, concentration-dependent analysis: 0.5–8 μM (transporter inhibitors 10 to 0.5 μM); for rate of imatinib-triggered cell death: at 10 μM; for metabolic activity of K562-R cells, combination with imatinib: compound 10 μM + imatinib 1 μM
Procedure: as §5
conc. 10 to 0.5 μM) over 72 h (Figure 3D).
as §2

Row | Caco2 permeability Papp A–B (Caco2 cells; apical to basolateral) | SMILES | Caco2 permeability Papp B–A (Caco2 cells) | intracellular accumulation of imatinib (K562-R cells [1]) | chemosensitizing to DTX (antimetabolic activity) (DU145-DR cells) | half-life at 1 h, 1 µM ([2]; MH) | hepatocyte CLint at 1 h, 1 µM [2] | half-life at 1 h, 1 µM ([3]; HH) | hepatocyte CLint at 1 h, 1 µM [3] | effect on SP phenotype (A549 cells (ABCC1+)) | number of colonies (CFC) [4] | metabolic activity of K562-R cells, compound alone (K562-R cells [5]) | chemosensitizing to DTX (antimetabolic activity) (PC3-DR cells) | effect on SP phenotype (MCF7 cells (ABCG2+)) | effect on SP phenotype (DU145-DR cells (ABCB1+)) | chemosensitizing effect, concentration-dependent analysis (K562-R cells [6]; K562-R, + imatinib 1 μM, 72 h) | rate of imatinib-triggered cell death (K562-R cells [6]; K562-R) | metabolic activity of K562-R cells, combination with imatinib (K562-R cells [6]; 72 h) | clearance class ([2]; MH) | clearance class ([3]; HH) | EC50 (K562-R cells [6]; K562-R, + imatinib 1 μM, 72 h, read-out: SC50 (drug concentration eliciting 50% of the maximum sensitizing effect))
1 | 0.1 10^–6 cms^–1 | CCCc1nc2c(C)cc(-c3nc4ccccc4n3C)cc2n1Cc1ccc(-c2ccccc2C(=O)OC)cc1 [7b, Methyl 4′-((1,7′-dimethyl-2′-propyl-1H,3′H-[2,5′-bibenzo[d]imidazole]-3′-yl)methyl)-[1,1′-biphenyl]-2-carboxylate] | 0.2 10^–6 cms^–1 | notably restored | produced the same effects as 5c and 6c | 13.8 min | 101 µL/min/1e6 cells | 18.4 min | 75.2 µL/min/1e6 cells | eliminated the SP phenotype | significantly reduced the number of colonies | inactive | only marginally increased the antimetabolic activity of DTX | eliminated the SP phenotype | eliminated the SP phenotype | strongly sensitized the cells to imatinib therapy | > 85% | 8–24% |  |  | 
2 |  | CCCc1nc2c(C)cc(-c3nc4ccccc4n3C)cc2n1Cc1ccc(-c2ccccc2C(N)=O)cc1 [7c, 4′-((1,7′-Dimethyl-2′-propyl-1H,3′H-[2,5′-bibenzo[d]imidazole]-3′-yl)methyl)-[1,1′-biphenyl]-2-carboxamide] | 30.8 10^–6 cms^–1 | notably restored | most active chemosensitizer | 44.9 min | 30.9 µL/min/1e6 cells | 100 min | 13.8 µL/min/1e6 cells | eliminated the SP phenotype | significantly reduced the number of colonies | inactive | most active chemosensitizer | eliminated the SP phenotype | eliminated the SP phenotype | strongly sensitized the cells to imatinib therapy | > 85% | 8–24% | high clearance | medium clearance | 1850 nM
